From US20120014911A1, “Regulators of the Interferon-Alpha Receptor 1 (IFNAR1) Chain of the Interferon Receptor” (priority 2009, published 2012)

Key:
[1] = test system: IFNAR1 Ser535 phosphorylation; experiment: IFN-α-induced Ser535 (degron) phosphorylation of IFNAR1 in cells, IP-immunoblot with anti-pS535; format: cell-based, human; settings: 293T cells, inhibitor pre-treatment, IFN-α
Procedure: (§1) Immunoprecipitation and immunoblotting procedures are described elsewhere (Fuchs et al, 1999, Oncogene 18:2039-2046). Protein degradation was carried out by cycloheximide (CHX, used at 20 μg/ml) chase. IFNAR1 internalization assay was carried out using the Fluorescence-based assay as described elsewhere (Kumar et al., 2007, J Cell Biol 179:935-950). BAY 43-9006 was obtained as a gift. Recombinant human IFN-a2 (Roferon) was purchased from Roche. Other reagents or inhibitors were purchased from commercial vendors.
(§2) Antibodies against Flag, GST and j3-actin (Sigma), HA (12CA, Roche), CK1α, PICD1/2 (PKCμ), PKD3 (PKCν), Tyk2, intracellular domain of hIFNAR1 and PKR, (Santa Cruz), anti-pan-phospho-tyrosine (4G10), phospho-Stat1 and Stat1 (Cell signaling), phospho-S710 of PKD2 (Biosource), PKD2 (Bethyl Laboratories), mIFNAR1 (Leinco) and ubiquitin (FK2, Biomol) were purchased. AA3, GB8 and EAl2 antibodies which recognize endogenous IFNAR1 (Goldman et al., 1999) and antibodies against IFNAR1 phosphorylated on Ser535 (pS535; (Kumar et al., 2004, J Biol Chem 279:46614-46620)) were described previously. Secondary antibodies conjugated to horseradish peroxidase were purchased from Chemicon and LI-COR. Immunoprecipitation and immunoblotting procedures are described elsewhere (Fuchs et al, 1999, Oncogene 18:2039-2046). Protein degradation was carried out by cycloheximide (CHX) chase in the presence of CHX (20 μg/ml). Immunoblot detection and quantification were carried out using the LI-COR's Odyssey Infrared Imaging System.

[2] = test system: IFNAR1; experiment: Cycloheximide chase of IFNAR1 degradation; format: cell-based, human; settings: HeLa cells, CHX chase in the presence of IFN-α
Procedure: as §1
as §2, with “Immunoprecipitation and immunoblotting procedures are described elsewhere (Fuchs et al, 1999, Oncogene 18:2039-2046). Protein degradation was carried out by cycloheximide (CHX) chase in the presence of CHX (20 μg/ml).” left out

[3] = test system: Stat1; experiment: Stat1 tyrosine phosphorylation in response to IFN-α, immunoblot; format: cell-based, human; settings: HeLa cells, inhibitor pre-treatment 1 h, IFN-α pulse 15 min
[4] = test system: 2fTGH cells; format: cell-based, human; settings: inhibitor pre-treatment 1 h, IFN-α pulse 1-2 h, read 24 h later
[5] = test system: protein kinase D (PKD); settings: literature (Gschwendt et al., 1996; Sharlow et al., 2008); cited from earlier work
[6] = test system: vesicular stomatitis virus (VSV); format: cell-based; settings: human 2fTGH cells, IFN-α 25-100 U/ml, titer 24 hr after treatments

Structure (SMILES)	ligand-induced Ser535 phosphorylation of endogenous IFNAR1 [1]	rate of proteolytic turnover (ligand-stimulated degradation) of IFNAR1 [2]	ligand-induced phosphorylation of Stat1 [3]	ISRE-driven luciferase transcriptional activity [4]	inhibition of / specificity against PKD [5]	protective effect of IFN-α against VSV (viral titer) [6]
O=C1NCCCc2c1oc1ccc(O)cc21 [CID755673]	significant inhibition	appreciable decrease	noticeably prolonged	robustly augmented	high specificity	–
O.O.O.O.O.O.O.O.O.O=C([O-])[C@@H]1[O][Sb](=[O])([O][Sb]2(=[O])[O][C@H]([C@H](O)CO)[C@H](O)[C@H](C(=O)[O-])[O]2)[O][C@H]([C@H](O)CO)[C@@H]1O.[Na+].[Na+].[Na+] (stereo partly drawn) [SSG]	–	–	–	–	–	potentiates the protective effect
